Experimental data published in paper PMC12567347, “Angiotensin II/Angiotensin I Ratio as a New Pharmacodynamic Parameter for Population Modelling in Healthy Adults and Children with Heart Failure Treated with Enalapril” (Pharmaceutics, 2025).

Key:
[1] = system: ACE activity; set-up: method as in PMID 8512763; details: eight infants with congestive heart failure, after four hours, single dose of 0.25 mg/kg enalapril maleate; cited from earlier work
[2] = molecular target: T1, angiotensin-converting enzyme (ACE) (Homo sapiens, UniProt P12821); test: Percentage change in the angiotensin II/angiotensin I ratio four hours after the initial enalapril dose in children with heart failure; type: in vivo; details: eight children with heart failure, four hours after first dose, median 0.06 mg/kg enalapril maleate
T1 construct: from tissue; host or cells: in vivo in human subjects; ACE activity read indirectly from the plasma angiotensin II/angiotensin I ratio
Protocol: In the pharmacokinetic bridging studies, a pharmacokinetic/pharmacodynamic profile was usually obtained in ACE inhibitor-naïve subjects at the initial dose visit, with pharmacokinetic samples collected before and 1, 2, 4, 6, and 12 h after enalapril orodispersible minitablet administration, as well as pharmacodynamic samples collected before and 4 h after administration. Alternatively, the pharmacokinetic/pharmacodynamic profile could also be obtained after reaching steady state at the optimal dose. In this case, the 12 h pharmacokinetic sample was omitted. Single pharmacokinetic and pharmacodynamic samples were collected in immediate succession during the remaining study visits. […]
For the simultaneous determination of several angiotensin peptides, including angiotensin I and angiotensin II, a validated multiplex liquid chromatography high-resolution mass spectrometry method was applied. Following precipitation and solid-phase extraction, the samples were analyzed using a Nexera XR liquid chromatography system (Shimadzu, Duisburg, Germany) coupled to a TripleTOF® 6600 mass spectrometer from AB Sciex (Concord, ON, Canada). […]
The percentage change in the angiotensin II/angiotensin I ratio was calculated in children with heart failure in whom an angiotensin II/angiotensin I ratio was available before the first dose of enalapril and four hours afterwards.

[3] = Serum enalaprilat concentrations in children with heart failure treated with enalapril orodispersible minitablets; type: in vivo, human; details: median first dose 0.06 mg/kg, median daily dose 0.11 mg/kg enalapril maleate
Protocol: For the studies, a dosing regimen with age- and weight-dependent recommended titration doses, target doses, and maximum doses was developed using physiologically based pharmacokinetic simulation (Table S2). The appropriate dosage for each subject was selected based on the judgment of the investigator. Daily doses ≤ 0.25 mg were administered once daily in the morning, and daily doses > 0.25 mg were administered in two equal divided doses in the morning and evening. The required number of orodispersible minitablets with 0.25 mg enalapril maleate or 1 mg enalapril maleate (now approved as Aqumeldi®, Proveca Pharma Limited, Dublin, Ireland) was placed in the patient’s cheek pouch. The orodispersible minitablets rapidly disintegrated into small, easily swallowable particles. To facilitate swallowing, a fluid of the patient’s/parent’s choice (e.g., breast milk, formula milk, cow milk, water) could be administered.
In the pharmacokinetic bridging studies, a pharmacokinetic/pharmacodynamic profile was usually obtained in ACE inhibitor-naïve subjects at the initial dose visit, with pharmacokinetic samples collected before and 1, 2, 4, 6, and 12 h after enalapril orodispersible minitablet administration, as well as pharmacodynamic samples collected before and 4 h after administration. […]

[4] = set-up: method as in PMID 26256099; details: parameters estimated in children extrapolated to an adult weight of 70 kg; cited from earlier work

T1 sequence (P12821 30-1306): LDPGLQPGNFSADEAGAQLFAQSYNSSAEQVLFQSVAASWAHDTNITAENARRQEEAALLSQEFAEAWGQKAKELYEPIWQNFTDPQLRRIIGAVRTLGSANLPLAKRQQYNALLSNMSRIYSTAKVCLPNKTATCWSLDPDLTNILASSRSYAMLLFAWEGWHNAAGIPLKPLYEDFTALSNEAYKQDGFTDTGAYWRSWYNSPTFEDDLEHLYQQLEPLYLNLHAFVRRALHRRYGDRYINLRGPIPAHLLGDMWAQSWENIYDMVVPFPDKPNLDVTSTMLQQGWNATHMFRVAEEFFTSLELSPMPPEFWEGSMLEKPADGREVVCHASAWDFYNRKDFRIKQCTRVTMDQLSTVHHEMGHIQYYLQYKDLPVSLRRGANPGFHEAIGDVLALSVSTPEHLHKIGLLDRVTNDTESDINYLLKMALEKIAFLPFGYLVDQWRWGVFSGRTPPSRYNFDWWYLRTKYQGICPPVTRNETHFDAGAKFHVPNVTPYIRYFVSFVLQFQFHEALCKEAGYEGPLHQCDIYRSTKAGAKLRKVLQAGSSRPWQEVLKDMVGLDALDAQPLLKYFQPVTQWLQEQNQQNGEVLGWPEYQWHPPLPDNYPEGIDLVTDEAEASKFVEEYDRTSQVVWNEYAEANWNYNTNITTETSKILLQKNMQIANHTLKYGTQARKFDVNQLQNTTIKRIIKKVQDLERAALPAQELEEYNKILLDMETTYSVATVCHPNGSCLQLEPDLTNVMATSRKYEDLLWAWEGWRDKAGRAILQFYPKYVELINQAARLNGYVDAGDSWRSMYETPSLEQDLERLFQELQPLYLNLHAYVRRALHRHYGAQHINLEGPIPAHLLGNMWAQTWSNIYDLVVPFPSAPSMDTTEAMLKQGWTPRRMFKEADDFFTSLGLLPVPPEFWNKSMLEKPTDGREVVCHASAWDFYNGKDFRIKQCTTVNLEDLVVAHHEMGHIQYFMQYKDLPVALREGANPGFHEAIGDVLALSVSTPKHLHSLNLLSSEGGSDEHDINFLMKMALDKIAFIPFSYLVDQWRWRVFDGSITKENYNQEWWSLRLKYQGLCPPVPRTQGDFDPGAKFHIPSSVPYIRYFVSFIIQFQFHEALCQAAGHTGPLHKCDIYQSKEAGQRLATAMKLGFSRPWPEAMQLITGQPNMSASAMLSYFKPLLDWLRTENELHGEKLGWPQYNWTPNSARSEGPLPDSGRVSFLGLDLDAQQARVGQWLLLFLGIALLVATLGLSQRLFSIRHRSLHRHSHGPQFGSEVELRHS

| Compound | mean inhibition of ACE activity [1] | decrease in angiotensin II/angiotensin I ratio, median [2] | decrease in angiotensin II/angiotensin I ratio, range [2] | highest measured enalaprilat concentration [3] | apparent central volume of distribution of enalaprilat [4] | apparent clearance of enalaprilat [4] |
| --- | --- | --- | --- | --- | --- | --- |
| CCOC(=O)[C@H](CCc1ccccc1)N[C@@H](C)C(=O)N1CCC[C@H]1C(=O)O [enalapril] | 75.5% | 79.3% | 21.4–92.7% |  |  |  |
| C[C@H](N[C@@H](CCc1ccccc1)C(=O)O)C(=O)N1CCC[C@H]1C(=O)O [enalaprilat] |  |  |  | 18.3 µg/L | 168.8 L | 18.2 L/h |
